# Data published in US20040229872A1, “Substituted cyclohexane-1,4-diamine compounds with anti-diarrhea and peripheral analgesic activity” (Gruenenthal GmbH, priority 2001, published 2004).
# How the values were obtained:
# mice [1] = assay: animal or person; settings: Mus musculus, iv, read-out: Analgesia, tail flick test in mice, i.v., ED50
# mice [2] = settings: mouse, in vivo, po
# mice [3] = settings: mouse, in vivo
# mice [4] = assay: PGE2-induced diarrhea in mice; assay type: in vivo
structure (smiles),measurement,setting,value
"CN(C)C(=O)C(CCN1CCC(O)(c2ccc(Cl)cc2)CC1)(c1ccccc1)c1ccccc1 [Loperamide, loperamide]",ED50,mice [1],> 0.562 mg/kg
same,"Carbon passage, mice, ED50 p.o.",mice [2],ED50 p.o. = ˜15 μM
same,action on the central nervous system (in words),mice [3],always has a measurable action
same,"tail flick test in mice, i.v.: toxic side effects from",mice [3]; iv,toxic from 0.464
same,ED50,"mice [4]; Mus musculus, iv, read-out: ED50 Value (mg/kg) i.v.",0.41 mg/kg
same,"PGE2-diarrhea, mice, ED50 i.v.","mice [4]; mouse, in vivo, iv",ED50 i.v. = 0.41 μM
same,"PGE2-diarrhea, mice, ED50 p.o.","mice [4]; mouse, in vivo, po",ED50 p.o. = 9.34 μM
